Data published in patent publication US20140356383A1, “ADMINISTRATION OF AN ANTI-GCC ANTIBODY-DRUG CONJUGATE AND A DNA DAMAGING AGENT IN THE TREATMENT OF CANCER” (priority 2013, published 2014).
Where “and” joins values, the source holds several entries; their conditions need not be identical. Identical values can stand only once.

Experiments:
[1] = tested on: PHTX-215 Pa s.c. xenograft; assay: 5F9 vcMMAE and gemcitabine in PHTX-215 Pa s.c. xenografts (Study CPGC-13-EF10); type: in vivo, CB-17 SCID mice; conditions: PHTX-215 Pa s.c. xenograft, CB-17 SCID mice, reference vehicle
Procedure: Day D0 was the first day of treatment.
Tumor volume was calculated using the formula: […]
Table 77A the annotation table for group symbols. […] A negative dAUC is interpreted as an increase in AUC relative to the reference. It is important to evaluate not only the P value, but also the dAUC. Comparisons with significant P values, but small dAUC values, may not be of interest.

[2] = tested on: PHTX-9c primary human colon tumor xenograft; assay: Single agent antitumor activity in PHTX-9c (PHTX-09c) primary human colon tumor xenograft
Procedure: Female CB-17 SCID mice (eight weeks old) were inoculated subcutaneously (SC) into the flank with PHTX-9c tumor fragments (2 mm×2 mm). Tumor growth was monitored twice per week using vernier calipers and the mean tumor volume was calculated using the formula (0.5×[length×width^2]). When the mean tumor volume reached approximately 150 mm^3 (Study A) or 160 mm^3 (Study B), animals were randomized into treatment groups (n=10/group for Study A and n=9/group for Study B).
Doses were administered on Days 1, 8, and 15 for the QW schedule and Days 1, 4, 8, 11, 15, and 18 for the BIW schedule. […] The equivalent dose of linker+MMAE is 4% of the 5F9-vcMMAE dose. These calculations are based on a mean 3.9 MMAE molecules per antibody and a free antibody molecular weight of 150 kD. Actual antibody molecular weight will vary slightly due to degree of glycosylation.
Tumor volume and body weight were measured twice weekly and were continued beyond the treatment period to measure regrowth kinetics, as evidenced by tumor growth delay (TGD). Tumor volume measurements were continued until tumor volume reached 10% of the body weight in a single mouse within a treatment group, at which time the group was terminated. The percentage of tumor growth inhibition (TGI) ([mean tumor volume of the control group—mean tumor volume of a treated group]/mean tumor volume of the control group; a T/C ratio) was determined on Day 20. The T/C ratios across a treatment group were compared to the T/C ratios of the control group using a two-tailed Welch's t-test.
The differences in the tumor growth trends over time between pairs of treatment groups were assessed using linear mixed effects regression models. These models account for the fact that each animal was measured at multiple time points. A separate model was fit for each comparison, and the areas under the curve (AUC) for each treatment group were calculated using the predicted values from the model. The percent decrease in AUC (dAUC) relative to the reference group was then calculated.
The 5F9 vcMMAE immunoconjugate was tested for single agent anti-tumor activity in the four primary human tumor xengraft models at varying concentrations in order to explore whether GCC expression levels played a role in tumor sensitivity. […] Free-MMAE was also used as a negative control.

[3] = tested on: PHTX-09c s.c. xenograft; assay: 5F9 vcMMAE and cisplatin in PHTX-09c s.c. xenografts (Study CPGC-11-EF05); conditions: reference vehicle
Procedure: The endpoints for each treatment group was either a) tumor volume reaches 10% body weight; or b) body weight loss of >20%. The projected tumor volume at the study initiation date was 200 mm^3.
Not greater than one day prior to dosing, all animals were weighed to the nearest gram and grouped. Dosing solutions were vortexed prior to each administration to ensure correct delivery of compound. Animals received approximately 0.1 ml doses administered I.V. using a 1 cc syringe, 27-30 gauge, ½-¾ inch in length.
Tumor volume measurements were obtained twice per week using Vernier calipers (0.01 mm). Tumor volume was calculated using the formula:
Efficacy was evaluated in terms of % tumor growth inhibition (TGI) and tumor growth delay (TGD); the difference in days for treated vs. control tumors to reach final study volume).
TGI was assessed on an arbitrary day (when the maximum tumor volume (“MTV” of the control treatment group reaches the maximum allowable tumor volume), using the following formula:
TGD was assessed by calculating T−C, where T=mean time (in days) for treatment group tumors to reach a predetermined size, and where C=mean time (in days) for the control group tumors to reach a predetermined size (e.g., 1,000 mm^3).
The predicted differences in the log tumor values (Yijk−Yi0k, which can be interpreted as log10 (fold change from day 0)) were taken from the above models to calculate mean AUC values for each treatment group. A dAUC value was then calculated as:
For synergy analyses, the observed differences in the log tumor values were used to calculate AUC values for each animal. […] The AUC for the control, or vehicle, group was calculated using the predicted values from the pairwise models described above. A measure of synergy was defined as follows:
where Ak and Bk are the k^th animal in the individual treatment groups and ABk is the k^th animal in combination treatment group. […] The standard error of the synergy score was calculated as the square root of the sum of squared standard errors across groups A, B, and AB. […]

[4] = tested on: 293-GCC#2 tumors; assay: PK/PD study (phospho-histone H3) in 293-GCC#2 tumor bearing mice; type: in vivo
Text: Phospho-histone H3 was detected by antibody (Upstate Biotechnology, now Millipore, Billerica, Mass.) staining of paraffin embedded sections of tumors.

[5] = tested on: PHTX-21c primary human mCRC tumor xenograft; assay: 5F9 vcMMAE single agent efficacy in PHTX-21c; type: in vivo, SCID mice; conditions: for anti-tumor activity maintained post-dosing: last dose on day 22
[6] = tested on: HT29 (WT / vector) cells; assay: Direct cytotoxicity assay (WST), HT29 wild-type / vector cells; type: cell-based, human
Procedure: To measure each antibody's ability to bind, internalize and kill target expressing cells, cytotoxicity assays were performed. In this assay, cells were incubated with various concentrations of the unconjugated primary anti-GCC antibody and a fixed non-toxic concentration of DM1-conjugated anti-human Fc secondary antibody (indirect cytotoxicity) or with various concentrations of toxin conjugated anti-GCC mAb (direct cytotoxicity). Cell viability was measured by WST assay after 4 days incubation.
Auristatin (analog of dolastatin 10) and maytansine class toxins were evaluated as ADCs with anti-GCC mAb. These toxins are all inhibitors of microtubule polymerization, acting as anti-mitotics.
The 5F9-auristatin toxin conjugates were tested in direct cytotoxicity assays of a variety of cells which been transfected with GCC nucleic acid and selected for expression of GCC. […] As a negative control, antibody drug conjugates were also made with sc209 antibody, which is a human IgG1 monoclonal antibody raised against an unrelated target, with no reactivity to GCC.

[7] = Study A, 0.938 mg/kg IV QW × 3 doses
[8] = Study A, 1.875 mg/kg IV QW × 3 doses
[9] = Study A, 3.75 mg/kg IV QW × 3 doses
[10] = Study A, 7.5 mg/kg IV QW × 3 doses
[11] = Study B, 0.938 mg/kg IV QW × 3 doses
[12] = Study B, 1.875 mg/kg IV QW × 3 doses
[13] = Study B, 3.75 mg/kg IV BIW × 6 doses
[14] = Study B, 3.75 mg/kg IV QW × 3 doses
[15] = Study B, 7.5 mg/kg IV QW × 3 doses
[16] = Study B, 10.0 mg/kg IV QW × 3 doses

5F9 vcMMAE: 5F9 mAb conjugated to MMAE using a vc (Val-Cit) linker; average drug loading about 3.6
dAUC (percent decrease in treatment AUC relative to reference group V, vehicle) ([1]; group A: MLN0264 3.75 mg/kg IV QW): 36.3% | dAUC (percent decrease in treatment AUC relative to reference group V, vehicle) ([1]; group B: MLN0264 7.5 mg/kg IV QW): 75.1% | day tumors start to re-grow ([2]; PHTX-09c, 7.5 mg/kg and 10 mg/kg): ~40 days | anti-tumor activity maintained post-dosing ([2]; PHTX-09c, 7.5 mg/kg and 10 mg/kg, last dose on day 15): 3 weeks | single agent anti-tumor activity ([2]; PHTX-09c, 1.875-10 mg/kg I.V. QW×3 weeks): strong | T/C ([2]; PHTX-09c, dose 0.938-10 mg/kg, QW, T/C=volume of tumor/control): 0.09 | BW change (mean maximum percent) [2, 7]: 9.0% | TGD [2, 7]: 3.3 days | TGI ([2]; Study A, 0.938 mg/kg IV QW × 3 doses, Day 20): 21.4 (p > 0.05) % | BW change (mean maximum percent) [2, 8]: 10.6% | TGD [2, 8]: 8.2 days | TGI ([2]; Study A, 1.875 mg/kg IV QW × 3 doses, Day 20): 44.7 (p > 0.001) % | BW change (mean maximum percent) [2, 9]: 9.0% | TGD [2, 9]: 17.8 days | TGI ([2]; Study A, 3.75 mg/kg IV QW × 3 doses, Day 20): 65.3 (p > 0.001) % | BW change (mean maximum percent) [2, 10]: 7.5% | days until first tumor >1000 mm^3 [2, 10]: (>58 days | TGI ([2]; Study A, 7.5 mg/kg IV QW × 3 doses, Day 20): 84.1 (p > 0.001) % | BW change (mean maximum percent) [2, 11]: −2.3% | TGD [2, 11]: 3.8 days | TGI ([2]; Study B, 0.938 mg/kg IV QW × 3 doses, Day 20): 20.7 (p > 0.001) % | BW change (mean maximum percent) [2, 12]: 5.6% | TGD [2, 12]: 6.6 days | TGI ([2]; Study B, 1.875 mg/kg IV QW × 3 doses, Day 20): 41.3 (p > 0.001) % | BW change (mean maximum percent) [2, 13]: −1.8% | TGD [2, 13]: 31.9 days | TGI ([2]; Study B, 3.75 mg/kg IV BIW × 6 doses, Day 20, 3.75 mg/kg): 84.9 (p > 0.001) % | BW change (mean maximum percent) [2, 14]: −2.2% | TGD [2, 14]: 16 days | TGI ([2]; Study B, 3.75 mg/kg IV QW × 3 doses, Day 20): 65.7 (p > 0.001) % | BW change (mean maximum percent) [2, 15]: 6.5% | days until first tumor >1000 mm^3 [2, 15]: (>47 days | TGI ([2]; Study B, 7.5 mg/kg IV QW × 3 doses, Day 20): 84.3 (p > 0.001) % | BW change (mean maximum percent) [2, 16]: 7.2% | days until first tumor >1000 mm^3 [2, 16]: (>56 days | TGI ([2]; Study B, 10.0 mg/kg IV QW × 3 doses, Day 20, 10 mg/kg): 91.2 (p > 0.001) % | greatest maximum body weight loss during treatment period ([2]; Study B, day 7, 0.18 mg/kg MMAE group and 0.938 mg/kg 5F9-vcMMAE group): 2.3% | TGI ([2]; both studies (A and B), 0.938 mg/kg IV QW): 20.7-21.4% | TGI ([2]; both studies (A and B), 1.875 mg/kg IV QW): 41.3-44.7% | TGI ([2]; both studies (A and B), 3.75 mg/kg IV QW): 65.3-65.7% | TGI ([2]; both studies (A and B), 7.5 mg/kg IV QW): 84.1-84.3% | dAUC ([3]; group A: MLN0264 1.875 mg/kg IV QW x3): 17.8% | dAUC ([3]; group B: MLN0264 3.75 mg/kg IV QW x3, 3.75 mg/kg): 28.4% and 44.8% | Average % Tumor cells pH 3 positive ([4]; single iv dose 75 μg/kg, 1 hr): 4.525% | Average % Tumor cells pH 3 positive ([4]; single iv dose 75 μg/kg, 4 hr): 2.552% | Average % Tumor cells pH 3 positive ([4]; single iv dose 75 μg/kg, 8 hr): 4.244% | Average % Tumor cells pH 3 positive ([4]; single iv dose 75 μg/kg, 24 hr): 9.8199% | Average % Tumor cells pH 3 positive ([4]; single iv dose 75 μg/kg, 48 hr): 8.692% | Average % Tumor cells pH 3 positive ([4]; single iv dose 75 μg/kg, 96 hr): 8.628% | Average % Tumor cells pH 3 positive ([4]; single iv dose 150 μg/kg, 1 hr): 3.335% | Average % Tumor cells pH 3 positive ([4]; single iv dose 150 μg/kg, 4 hr): 2.785% | Average % Tumor cells pH 3 positive ([4]; single iv dose 150 μg/kg, 8 hr): 4.576% | Average % Tumor cells pH 3 positive ([4]; single iv dose 150 μg/kg, 24 hr): 13.79% | Average % Tumor cells pH 3 positive ([4]; single iv dose 150 μg/kg, 48 hr): 14.26% | Average % Tumor cells pH 3 positive ([4]; single iv dose 150 μg/kg, 96 hr): 14.68% | anti-tumor activity maintained post-dosing ([5]; 7.5 mg/kg): 7-8 weeks | anti-tumor activity maintained post-dosing ([5]; 10 mg/kg): > 15 weeks | single agent anti-tumor activity ([5]; 3.75-10 mg/kg I.V. QW×4): Moderate to strong in vivo anti-tumor activity | T/C ([5]; dose 3.75-10 mg/kg, QW, T/C=volume of tumor/control): 0.23 | LD 50 ([6]; HT29, auristatin ADCs): 0.93 nM | LD 50 ([6]; HT 29 WT, auristatin ADCs): 84 nM
